From article PMC3466217, “A Novel Magnetic Nanoparticle Drug Carrier for Enhanced Cancer Chemotherapy” (PLoS ONE, 2012)
Converted amounts (≈) assume the structure as drawn.

How the values were obtained:
[1] = tested on: H22 hepatoma cell tumor; test: Chemotherapy experiments in H22 tumor-bearing mice (tumor volume, life span, histology); conditions: no EMF
Description: The mouse hepatoma H22 cell line was grown in RPMI-1640 medium supplemented with 10% FBS, 100 units/ml of penicillin and 100 µg/ml of streptomycin at 37°C and 5% CO2. BALB/c mice (4- to 8-week-old males, body weight 26±5 g) were housed (one mouse per cage) under specific pathogen-free conditions, maintained on a 12-hour light-dark cycle with controlled temperature (20–24°C), and were given sterile food. The tumor-bearing mouse model was generated by subcutaneous injection of 4×10^5 H22 cells with 50 µl phosphate-buffered saline (PBS) into the shaved right flank. The treatment protocol required the mice to be anesthetized and these were anesthetized with ketamine (80 mg/kg) and xylazine (3 mg/kg), and acepromazine (2 mg/kg) via intraperitoneal injection (IP). If an additional dose was needed, ketamine alone was used.
The doses were normalized to 5 mg DOX per kg body weight when the tumor volume reached 50 to 100 mm^3 (∼10 days after tumor cell inoculation). The volume for 150 µl was injected via the tail vein and the treatment was carried out three times without interval in three weeks.
Chemotherapy experiments: H22 tumor-bearing mice (4 groups; for each group, n = 18) were used and the treatment was performed as described above. The antitumor effect was assessed by the following steps: 1) six mice were sacrificed for each group on the 24th day following treatment. The tumors were harvested and fixed in 10% formalin, embedded in paraffin and sectioned (5 µm coupes) for hematoxylin–eosin (HE) staining for microscopic examination purposes; 2) tumor sizes (4 groups; for each group, n = 12) were measured by a caliper before therapy and every three days after treatment using the following equation: tumor volume (V, mm^3) = (tumor length×tumor width)^2/2. The life span of each animal was also recorded. The relative tumor volume was calculated from V = V/V0, where V0 is the tumor volume at the beginning of treatment. The endpoints of the antitumor effect were evaluated by the degree of tumor growth inhibition and life span after treatment.

[2] = tested on: H22 cells; test: Cytotoxicity in H22 cell culture (MTT assay); assay type: cell-based, mouse; conditions: 24 hrs, concentration as DOX
Description: A volume of 180 µl of H22 cells were seeded in 96-well plates (4,000 cells/well).
Control cells were cultured in medium only. Thiazolyl blue tetrazolium bromide (25 µl of 5 mg/ml) (MTT, AMRESCO Inc, Solon, OH) was added to each well and incubated for 4 hrs. The culture medium was removed from the wells and replaced with 150 µl dimethylsulfoxide (DMSO, BioTek, Winooski, VT). After shaking gently for 15 min at 25°C, the DMSO solution was transferred to centrifugation tubes and centrifuged at 2,000 rpm for 5 min. The absorbance was then measured at 570 nm with an ELx-800 Universal Microplate Reader (BioTek, Winooski, VT). […] The half-maximal inhibitory concentration (IC50; drug concentration corresponding to 50% growth inhibition) was calculated using SigmaPlot 9.0 software (Systat Software Inc., San Jose, CA) and the 4-parameter logistic function standard curve analysis for dose response.

[3] = DOX biodistribution in H22 tumor-bearing mice; assay type: in vivo, BALB/c mice; conditions: 5 mg DOX/kg, tail vein, 0.5 hr after treatment, no EMF
Description: The blood, main organs (heart, lung, liver, spleen, kidney), and the tumor of each mouse were harvested for quantitative analysis of the DOX biodistribution. The blood was centrifuged at 5,000 rpm for 1 min at 4°C and the supernatant was obtained by adding 180 µl methanol and 20 µl of inner standard solution (0.2 mg/ml daunorubicin solution dissolved in methanol) to a 2-ml tube containing 200 µl plasma. For the organ (heart, lung, liver, spleen, kidney) and tumor samples, the frozen tissues were weighed and homogenized at 4°C in 0.9% NaCl to a total volume of 10 ml, and centrifuged at 5,000 rpm for 1 min at 4°C to retrieve the supernatant.
A total volume of 200 µl of the plasma, or the supernatant of homogenized tissue, or the tumor samples was then mixed with 180 µl methanols and 20 µl inner standard solutions, followed by 0.4 g sodium sulfate. The mixture was homogenized by vortexing for 5 min and then incubated at 4°C for 1 hr. After the 1-hr incubation, the mixture was centrifuged at 12,000 rpm for 15 min. […] Finally, the percent-injected dose per gram tissue of the tissue and tumor samples was calculated.

SMILES: COc1cccc2c1C(=O)c1c(O)c3c(c(O)c1C2=O)C[C@@](O)(C(=O)CO)C[C@@H]3O[C@H]1C[C@H](N)[C@H](O)[C@H](C)O1 [DOX, doxorubicin]
- life span of tumor-bearing mice ([1]; 5 mg DOX/kg iv three times): 31.3 ± 3.31 days
- tumor histology (HE staining) ([1]; 24th day following treatment): A few necrotic cells were observed
- relative tumor volume (V/V0) ([1]; 21 days after start of treatment, 5 mg DOX/kg iv three times): 7.08±1.68
- survival rate of tumor-bearing mice ([1]; following treatment for 33 days): 33.3%
- IC50 (cell inhibition rate) [2]: 0.530 ± 0.010 µg/mL (≈ 0.975 µM)
- DOX concentrations in the other organs (heart, lung and kidney) [3]: Very low concentrations
- percent injected dose per gram tissue in blood [3]: 1.07%
- percent injected dose per gram tissue in livers [3]: 0.402%
- percent injected dose per gram tissue in spleens [3]: 0.634%
- percent injected dose per gram tissue in tumors [3]: 0.741%
